In patent publication US12054498B2, “Heteroaromatic macrocyclic ether chemotherapeutic agents” (Nuvalent, Inc., priority 2020, dated 2024):
Where two headings read alike, the source gives them in different places. One block for each compound: values may come before it.

How the values were obtained:
[1] = from CCn1ccc(C(=O)c2nn(C)nc2-c2ccc(F)cc2[C@@H](C)Oc2cc(Br)cnc2N)c1; cc_pd bond; 12-membered ring; Pd(OAc)2/cataCXium A/KOAc; 2-methyl-2-butanol; 38.0 mM; 120.0 °C
[2] = cc_pd bond, Pd(OAc)2/cataCXium A, KOAc, 2-methyl-2-butanol, 120.0 °C
[3] = from Cc1nn(CC2CC2)cc1Cc1nn(C)nc1-c1ccc(F)cc1C(CO[Si](C)(C)C(C)(C)C)Oc1cc(Br)cnc1N; cc_pd bond; 12-membered ring; Pd(OAc)2/cataCXium A/KOAc; 2-methyl-2-butanol; 30.0 mM; 120.0 °C
ROS1-positive NSCLC = ROS1-positive NSCLC patients; cited from earlier work
ROS1-G2032R = molecular target: T1, ROS1-G2032R (Homo sapiens, UniProt P08922, G2032R); experiment: Biochemical kinase assay, ROS1-G2032R kinase domain; conditions: apparent inhibitory constant, Morrison equation; ATP 2 mM in substrate solution; read-out: ROS1-G2032R Ki^app
T1 construct: purchased SignalChem R14-12BG
How it was run: (§1)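 Kinetic read: 485 nm, 2-min intervals, 120 min, 30 °C. Substrate mix — ATP 2 mM, AQT0101 26 μM, HEPES 50 mM pH 7.5, MgCl2 10 mM. Output: Ki^app, Morrison equation.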

[4] = molecular target: T2, Ba/F3 cells CD74-ROS1 G2032R (Homo sapiens, UniProt P08922, G2032R); experiment: Ba/F3 cell proliferation assay, CD74-ROS1 G2032R; assay type: cell-based; conditions: 72 hours, CellTiter-Glo
T2 construct: fusion of the C-terminus of ROS1 with the N-terminus of various partner proteins; host or cells: Ba/F3 (RIKEN), retroviral pMSCV-puro; the other entry of the earlier key: CD74 (P04233, HLA class II histocompatibility antigen gamma chain)
How it was run: (§2)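 First, retrovirally infected Ba/F3 cells were made IL-3-independent and selected with puromycin (0.8 μg/mL). Next, cells were plated and rested one day. Then compounds in 3-fold dilutions were added for 72 hours before CellTiter-Glo readout.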

ALK L1196M/G1202R = molecular target: T3, ALK L1196M/G1202R (Homo sapiens, UniProt Q9UM73, G1202R/L1196M); experiment: Biochemical kinase assay, ALK L1196M/G1202R kinase domain; conditions: apparent inhibitory constant, Morrison equation; ATP 2 mM in substrate solution; read-out: ALK-L1196M-G1202R Ki^app
T3 construct: purchased SignalChem A19-12NG
How it was run: (§3)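 Compound in DMSO added first, then substrate solution (ATP 2 mM; AQT0101 or AQT0104, 26 μM; pH 7.5 HEPES, 10 mM MgCl2), then kinase solution with enzyme at 0.5–3 nM depending on construct. Kinetic read every 2 min for 120 min at 30° C; Ki^app by Morrison regression.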

ROS1-wt = molecular target: T4, ROS1-wt (Homo sapiens, UniProt P08922); experiment: Biochemical kinase assay, ROS1-wt kinase domain; conditions: apparent inhibitory constant, Morrison equation; ATP 2 mM in substrate solution; read-out: ROS1-wt Ki^app
T4 construct: purchased Carna 08-163
How it was run: as §1

[5] = molecular target: T5, Ba/F3 cells EML4-ALK wt (variant 1) (Homo sapiens, UniProt Q9UM73); experiment: Ba/F3 cell proliferation assay, EML4-ALK wt (variant 1); assay type: cell-based; conditions: 72 hours, CellTiter-Glo
T5 construct: echinoderm microtubule-associated protein-like 4 (EML4) gene and the ALK tyrosine kinase domain; host or cells: Ba/F3 (RIKEN), retroviral pMSCV-puro; the other entry of the earlier key: EML4 (Q9HC35, Echinoderm microtubule-associated protein-like 4)
How it was run: (§4)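 Stable fusion-expressing Ba/F3 clones, 1,000 cells/well. Compounds for 72 h, CellTiter-Glo readout; IC50 by 4-parameter logistic regression.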

[6] = tested on: TPM3-NTRK1-wt IC50 / primary target IC50 (e.g. CD74-ROS1-wt); experiment: TRKA selectivity in Ba/F3 cells (TRKA potency divided by primary target potency); assay type: cell-based
Protocol: TRKA selectivity was calculated by dividing a compound's TRKA potency by its primary target potency (e.g. TPM3-NTRK1-wt IC50/CD74-ROS1-wt IC50). Compound selectivity can be interpreted by binning ratio values: bin A for very high selectivity, ratio >30-fold; bin B for high selectivity, ratio >10-fold; bin C for moderate selectivity, ratio ≥1; and bin D for low selectivity, ratio <1. […] (nd=not determined).

ALK-wt = molecular target: T6, ALK-wt (Homo sapiens, UniProt Q9UM73); experiment: Biochemical kinase assay, ALK-wt kinase domain; conditions: apparent inhibitory constant, Morrison equation; ATP 2 mM in substrate solution; read-out: ALK-wt Ki^app
T6 construct: purchased Carna 08-518
How it was run: as §3

[7] = molecular target: T7, Ba/F3 cells EML4-ALK L1196M/G1202R (variant 1) (Homo sapiens, UniProt Q9UM73, G1202R/L1196M); experiment: Ba/F3 cell proliferation assay, EML4-ALK L1196M/G1202R (variant 1); assay type: cell-based; conditions: 72 hours, CellTiter-Glo
T7 construct: echinoderm microtubule-associated protein-like 4 (EML4) gene and the ALK tyrosine kinase domain; host or cells: Ba/F3 (RIKEN), retroviral pMSCV-puro; the other entry of the earlier key: EML4 (Q9HC35, Echinoderm microtubule-associated protein-like 4)
How it was run: as §4

TRKA-wt = molecular target: T8, TRKA-wt (Homo sapiens, UniProt P04629); experiment: Biochemical kinase assay, TRKA-wt kinase domain; conditions: apparent inhibitory constant, Morrison equation; ATP 2 mM in substrate solution; read-out: TRKA-wt Ki^app
T8 construct: or TRKA-wt (1 nM, BPS Bio, 40280) kinase domains in buffer; purchased BPS Bio 40280
How it was run: as §3

Ba/F3 cells TPM3-TRKA = molecular target: T9, Ba/F3 cells TPM3-TRKA (Homo sapiens, UniProt P04629); experiment: Ba/F3 cell proliferation assay, TPM3-TRKA; assay type: cell-based; conditions: 72 hours, CellTiter-Glo, read-out: TPM3-NTRK1-wt IC50
T9 construct: host or cells: Ba/F3 (RIKEN), retroviral pMSCV-puro; the other entry of the earlier key: TPM3 (P06753, Tropomyosin alpha-3 chain)
How it was run: as §4

[8] = molecular target: T10, Ba/F3 cells CD74-ROS1 wild-type (wt) (Homo sapiens, UniProt P08922); experiment: Ba/F3 cell proliferation assay, CD74-ROS1 wild-type; assay type: cell-based; conditions: 72 hours, CellTiter-Glo
T10 construct: fusion of the C-terminus of ROS1 with the N-terminus of various partner proteins; host or cells: Ba/F3 (RIKEN), retroviral pMSCV-puro; the other entry of the earlier key: CD74 (P04233, HLA class II histocompatibility antigen gamma chain)
How it was run: as §2

T7 sequence (Q9UM73 with tags, fused parts or gaps L1196M/G1202R): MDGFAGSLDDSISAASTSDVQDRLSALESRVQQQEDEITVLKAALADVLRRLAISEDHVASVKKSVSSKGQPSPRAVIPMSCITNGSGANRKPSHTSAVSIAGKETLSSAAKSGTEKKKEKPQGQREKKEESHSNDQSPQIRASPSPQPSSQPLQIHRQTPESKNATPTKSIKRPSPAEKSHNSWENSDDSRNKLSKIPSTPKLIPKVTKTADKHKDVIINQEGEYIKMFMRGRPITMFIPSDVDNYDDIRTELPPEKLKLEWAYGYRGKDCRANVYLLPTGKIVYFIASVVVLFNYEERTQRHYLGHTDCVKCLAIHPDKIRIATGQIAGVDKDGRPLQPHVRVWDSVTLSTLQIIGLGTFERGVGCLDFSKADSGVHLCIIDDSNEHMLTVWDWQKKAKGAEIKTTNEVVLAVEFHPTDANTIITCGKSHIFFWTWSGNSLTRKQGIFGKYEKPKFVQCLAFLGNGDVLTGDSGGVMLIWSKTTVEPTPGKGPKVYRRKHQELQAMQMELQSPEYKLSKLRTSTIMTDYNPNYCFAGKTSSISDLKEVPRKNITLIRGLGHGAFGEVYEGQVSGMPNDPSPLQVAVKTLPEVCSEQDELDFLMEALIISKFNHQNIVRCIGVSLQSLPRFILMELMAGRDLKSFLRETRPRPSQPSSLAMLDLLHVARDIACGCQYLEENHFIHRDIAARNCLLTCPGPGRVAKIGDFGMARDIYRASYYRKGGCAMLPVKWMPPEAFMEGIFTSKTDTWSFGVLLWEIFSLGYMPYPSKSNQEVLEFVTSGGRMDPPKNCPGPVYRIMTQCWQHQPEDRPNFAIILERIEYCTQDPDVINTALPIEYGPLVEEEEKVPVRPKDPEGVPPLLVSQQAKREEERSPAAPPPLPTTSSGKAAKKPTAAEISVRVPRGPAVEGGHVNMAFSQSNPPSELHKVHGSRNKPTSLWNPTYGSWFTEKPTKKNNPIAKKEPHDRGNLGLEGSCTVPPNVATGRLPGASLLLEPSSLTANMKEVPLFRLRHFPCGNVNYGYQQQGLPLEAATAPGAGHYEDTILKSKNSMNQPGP
T8 sequence (P04629 510-781 limits assumed): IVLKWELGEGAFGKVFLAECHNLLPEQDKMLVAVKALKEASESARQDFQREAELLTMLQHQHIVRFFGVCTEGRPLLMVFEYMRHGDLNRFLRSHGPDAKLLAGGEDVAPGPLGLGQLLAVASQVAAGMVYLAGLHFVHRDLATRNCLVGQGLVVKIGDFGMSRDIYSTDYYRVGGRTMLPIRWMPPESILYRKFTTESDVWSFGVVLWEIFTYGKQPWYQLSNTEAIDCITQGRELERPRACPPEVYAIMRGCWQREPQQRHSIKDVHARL
T2 sequence (P08922 1883-2347 G2032R limits assumed): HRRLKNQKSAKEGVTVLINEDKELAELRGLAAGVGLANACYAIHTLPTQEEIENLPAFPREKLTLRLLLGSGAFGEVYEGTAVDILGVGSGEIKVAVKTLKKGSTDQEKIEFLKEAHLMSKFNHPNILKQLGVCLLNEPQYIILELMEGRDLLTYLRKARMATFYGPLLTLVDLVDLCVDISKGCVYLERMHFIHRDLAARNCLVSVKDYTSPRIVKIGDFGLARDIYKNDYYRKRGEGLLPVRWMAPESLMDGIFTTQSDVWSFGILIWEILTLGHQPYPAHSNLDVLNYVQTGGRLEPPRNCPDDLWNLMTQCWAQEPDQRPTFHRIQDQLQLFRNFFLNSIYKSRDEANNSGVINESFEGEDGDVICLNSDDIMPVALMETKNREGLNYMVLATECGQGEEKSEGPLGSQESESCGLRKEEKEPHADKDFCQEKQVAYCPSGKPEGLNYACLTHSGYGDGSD
T1 sequence (P08922 1945-2222 G2032R limits assumed): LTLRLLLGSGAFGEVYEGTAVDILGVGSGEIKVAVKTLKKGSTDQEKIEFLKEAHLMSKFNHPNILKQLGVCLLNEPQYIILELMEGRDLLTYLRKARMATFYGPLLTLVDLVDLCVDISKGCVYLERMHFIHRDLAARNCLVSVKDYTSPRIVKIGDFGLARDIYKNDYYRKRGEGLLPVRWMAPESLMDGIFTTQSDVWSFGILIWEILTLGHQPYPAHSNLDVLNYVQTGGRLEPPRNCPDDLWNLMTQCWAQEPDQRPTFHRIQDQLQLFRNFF
T6 sequence (Q9UM73 1116-1392 limits assumed): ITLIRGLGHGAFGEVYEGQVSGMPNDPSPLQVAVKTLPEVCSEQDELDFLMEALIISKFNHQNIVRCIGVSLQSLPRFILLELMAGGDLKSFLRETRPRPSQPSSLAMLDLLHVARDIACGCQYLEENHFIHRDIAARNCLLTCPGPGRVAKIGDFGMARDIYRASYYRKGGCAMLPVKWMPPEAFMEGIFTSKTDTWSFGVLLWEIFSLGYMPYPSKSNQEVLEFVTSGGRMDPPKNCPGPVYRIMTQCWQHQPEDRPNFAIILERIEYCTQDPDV
T5 sequence (Q9UM73 with tags, fused parts or gaps): as the sequence (Q9UM73 with tags, fused parts or gaps L1196M/G1202R) above, with M635L, R641G counted along it
T3 sequence (Q9UM73 1116-1392 L1196M/G1202R limits assumed): as the sequence (Q9UM73 1116-1392 limits assumed) above, with L81M, G87R counted along it
T10 sequence (P08922 1883-2347 limits assumed): as the sequence (P08922 1883-2347 G2032R limits assumed) above, with R150G counted along it
T9 sequence (P04629 510-796 limits assumed): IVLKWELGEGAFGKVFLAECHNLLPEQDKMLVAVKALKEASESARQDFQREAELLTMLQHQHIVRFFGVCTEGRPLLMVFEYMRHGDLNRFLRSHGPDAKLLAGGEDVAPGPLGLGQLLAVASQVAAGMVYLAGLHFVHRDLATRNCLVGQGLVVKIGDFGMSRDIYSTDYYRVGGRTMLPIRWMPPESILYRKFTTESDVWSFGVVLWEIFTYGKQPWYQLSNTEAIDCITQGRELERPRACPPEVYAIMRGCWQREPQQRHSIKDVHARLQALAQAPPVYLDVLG
T4 sequence (P08922 1945-2222 limits assumed): as the sequence (P08922 1945-2222 G2032R limits assumed) above, with R88G counted along it

Compound: CCn1ccc2c1-c1cnc(N)c(c1)O[C@H](C)c1cc(F)ccc1-c1nn(C)nc1C2=O
ring closure, yield after HPLC [1]: 15%
ring closure, yield of all isomers ([2]; from CCn1ccc(C(=O)c2nn(C)nc2-c2ccc(F)cc2[C@@H](C)Oc2cc(Br)cnc2N)c1, 38.0 mM, 12.0 h): 15%

Compound: Cc1nn(CC2CC2)c2c1Cc1nn(C)nc1-c1ccc(F)cc1C(CO[Si](C)(C)C(C)(C)C)Oc1cc-2cnc1N (centres unmarked)
ring closure, yield of all isomers ([2]; from Cc1nn(CC2CC2)cc1Cc1nn(C)nc1-c1ccc(F)cc1C(CO[Si](C)(C)C(C)(C)C)Oc1cc(Br)cnc1N, 30.0 mM): 23%
ring closure, isolated yield [3]: 23%

Compound: C[C@@H](Oc1cc(-c2cnn(C3CCNCC3)c2)cnc1N)c1c(Cl)ccc(F)c1Cl [Crizotinib, crizotinib]
median progression-free survival (ROS1-positive NSCLC): 9-19 months
overall response rate (ROS1-positive NSCLC): 60-80%

Ki (ROS1-G2032R): < 50 nM
IC50 [4]: 0.1 to 50 nM
Ki (ALK L1196M/G1202R): < 50 nM
Ki (ROS1-wt): < 50 nM
IC50 [5]: 0.1 to 50 nM
Ki (ALK-wt): < 50 nM
IC50 [7]: 0.1 to 50 nM
Ki (TRKA-wt): > 500 nM
IC50 (Ba/F3 cells TPM3-TRKA): > 500 nM
IC50 [8]: 0.1 to 50 nM
Compound: C[C@H]1Oc2cc(cnc2N)-c2c(CC3CC3)nn(C)c2Cc2nn(C)nc2-c2ccc(F)cc21 [Example 100, (19R)-3-(cyclopropylmethyl)-16-fluoro-5,10.19-trimethyl-20-oxa-4,5,9,10,11 23-hexaazapentacyclo[19.3.1.0^2,^6.0^8,^12.0^13,^18]pentacosa-1(24),2(6) 3,8,11,13,15,17,21(25),22-decaen-22-amine]
TPM3-NTRK1-wt/CD74-ROS1-G2032R selectivity ratio ([6]; TRKA potency / CD74-ROS1-G2032R potency): A (bin A for very high selectivity, ratio >30-fold)
TPM3-NTRK1-wt/CD74-ROS1-wt selectivity ratio ([6]; TRKA potency / CD74-ROS1-wt potency): A (bin A for very high selectivity, ratio >30-fold)
TPM3-NTRK1-wt/EML4-ALK-L1196M-G1202R selectivity ratio ([6]; TRKA potency / EML4-ALK-L1196M-G1202R potency): A (bin A for very high selectivity, ratio >30-fold)
TPM3-NTRK1-wt/EML4-ALK-wt selectivity ratio ([6]; TRKA potency / EML4-ALK-wt potency): A (bin A for very high selectivity, ratio >30-fold)
